Experimental data: patent US20230309562A1 (priority 2020, published 2023)
Like-named read-outs stand apart in the source and are kept apart here.

Legend:
[1] = tested on: infectious microorganism; conditions: cited from earlier work
[2] = tested on: Influenza A; type: cell-based
[3] = tested on: SARS COVID-19; type: cell-based; conditions: for TCID 50% viral kill: 5-minute exposure
[4] = tested on: Ebola virus; conditions: exposure times of at least several minutes required, cited from earlier work

| SMILES | growth inhibition ([1]; 2.6 ppm, in 5 minutes) [%] | LD50 ([1]; reported) | TCID 50% viral kill [2] | virus kill by HOCl treatment [2] | TCID 50% viral kill ([3]; 1 ppm) | TCID 50% viral kill ([3]; 2.5 ppm) | TCID 50% viral kill ([3]; 10 ppm) | TCID 50% viral kill ([3]; 25 ppm) | virus kill by HOCl treatment ([3]; concentrations of between 1 ppm and 25 ppm) | destruction of Ebola virus ([4]; 0.5% solution) | destruction of Ebola virus ([4]; 1% solution) |
| --- | --- | --- | --- | --- | --- | --- | --- | --- | --- | --- | --- |
| OCl [HOCl, hypochlorous acid] | 100 | 0.0104-0.156 ppm | viral kill positive | killed | viral kill positive | viral kill positive | viral kill positive | viral kill positive | killed | – | – |
| OCl [sodium hypochlorite, Sodium hypochlorite] | – | – | – | – | – | – | – | – | – | effectively destroy | effectively destroy |
